Measured values as given in the supplement of paper PMC10307832.

Columns and labels:
Experiment in all cases: relative viability (nuclei count vs DMSO), 5 days (fraction); higher = more cells survive
Tanzisertib + Lapatinib = compound: O[C@H]1CC[C@H](Nc2ncc3nc(Nc4c(F)cc(F)cc4F)n([C@H]4CCOC4)c3n2)CC1 [Tanzisertib] + CS(=O)(=O)CCNCc1ccc(-c2ccc3ncnc(Nc4ccc(OCc5cccc(F)c5)c(Cl)c4)c3c2)o1 [Lapatinib] (partner 2 µM)
Procedure, shortened: (§1)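 Nuclei were stained with Hoechst during a one-step fixation (final 0.05% Triton X-100, 1% formaldehyde, 1 ug/ml Hoechst) carried out 5 days after dosing, then counted on 4× images. The cells, lung cancer lines in 1536-well plates, had been dosed by pin tool the day after seeding with one drug alone or a fixed anchor-drug dose plus five library-drug doses (not always all listed) in √10 steps. Relative viability is the nuclei count in treated wells divided by that in vehicle wells, and each value is the median of duplicate plates.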

Tanzisertib + Crizotinib = compound: O[C@H]1CC[C@H](Nc2ncc3nc(Nc4c(F)cc(F)cc4F)n([C@H]4CCOC4)c3n2)CC1 [Tanzisertib] + C[C@@H](Oc1cc(-c2cnn(C3CCNCC3)c2)cnc1N)c1c(Cl)ccc(F)c1Cl [Crizotinib] (partner 1 µM)
Procedure, shortened: as §1

Tanzisertib + Foretinib = compound: O[C@H]1CC[C@H](Nc2ncc3nc(Nc4c(F)cc(F)cc4F)n([C@H]4CCOC4)c3n2)CC1 [Tanzisertib] + COc1cc2c(Oc3ccc(NC(=O)C4(C(=O)Nc5ccc(F)cc5)CC4)cc3F)ccnc2cc1OCCCN1CCOCC1 [Foretinib] (partner 0.25 µM)
Procedure, shortened: as §1

[1] = compound: C[C@@H](N)c1ccc(C(=O)Nc2ccnc3[nH]ccc23)cc1 + CC(C)C[C@H](NC(=O)[C@H](Cc1ccccc1)NC(=O)c1cnccn1)B(O)O [Bortezomib] (partner 0.002 µM)
Procedure, shortened: as §1

Row | Cell Line | relative viability (Tanzisertib + Lapatinib; first compound 0.08 µM) | relative viability (Tanzisertib + Lapatinib; first compound 0.253 µM) | relative viability (Tanzisertib + Lapatinib; first compound 0.8 µM) | relative viability (Tanzisertib + Lapatinib; first compound 2.53 µM) | relative viability (Tanzisertib + Lapatinib; first compound 8 µM) | relative viability (Tanzisertib + Crizotinib; first compound 0.08 µM) | relative viability (Tanzisertib + Crizotinib; first compound 0.253 µM) | relative viability (Tanzisertib + Crizotinib; first compound 0.8 µM) | relative viability (Tanzisertib + Crizotinib; first compound 2.53 µM) | relative viability (Tanzisertib + Crizotinib; first compound 8 µM) | relative viability (Tanzisertib + Foretinib; first compound 0.08 µM) | relative viability (Tanzisertib + Foretinib; first compound 0.253 µM) | relative viability (Tanzisertib + Foretinib; first compound 0.8 µM) | relative viability (Tanzisertib + Foretinib; first compound 2.53 µM) | relative viability (Tanzisertib + Foretinib; first compound 8 µM) | relative viability ([1]; first compound 0.04 µM) | relative viability ([1]; first compound 0.1265 µM) | relative viability ([1]; first compound 0.4 µM) | relative viability ([1]; first compound 1.265 µM) | relative viability ([1]; first compound 4 µM)
1 | NCI-H2170 | 0.285 | 0.252 | 0.26 | 0.262 | 0.253 | 1.42 | 1.18 | 1.16 | 1.09 | 1.02 | 1.02 | 1.01 | 0.954 | 1.06 | 0.984 | – | – | – | – | –
2 | A549 | 1.04 | 0.92 | 0.921 | 1.05 | 1.07 | 0.852 | 0.633 | 0.778 | 0.913 | 0.714 | 0.98 | 0.951 | 0.97 | 0.87 | 0.839 | – | – | – | – | –
3 | SW 1573 | 0.625 | 1.09 | 1 | 1.01 | 1.1 | 0.769 | 0.798 | 0.769 | 0.872 | 0.611 | 0.73 | 0.92 | 0.898 | 0.933 | 0.819 | 1.08 | 1.01 | 0.939 | 0.968 | 0.7
4 | NCI-H1975 | 1.06 | 0.944 | 0.87 | 0.942 | 0.912 | 0.892 | 1 | 0.954 | 0.935 | 0.915 | 0.968 | 0.968 | 1.03 | 0.946 | 0.841 | 0.314 | 0.365 | 0.37 | 0.308 | 0.244
5 | Calu-6 | 1.14 | 1.11 | 1.07 | 1.05 | 1 | 0.79 | 0.785 | 0.782 | 0.756 | 0.712 | 0.955 | 0.951 | 0.799 | 0.841 | 0.789 | 0.99 | 1.1 | 0.911 | 0.886 | 0.886
6 | NCI-H1623 | – | – | – | – | – | – | – | – | – | – | 0.956 | 0.815 | 0.912 | 0.834 | 0.788 | – | – | – | – | –
7 | NCI-H3122 | 1.03 | 1.01 | 0.998 | 1.06 | 1.06 | 0.302 | 0.306 | 0.288 | 0.292 | 0.293 | 1.1 | 0.951 | 1.03 | 0.99 | 1.01 | 1.05 | 0.979 | 1.04 | 1 | 0.912
8 | HCC-44 | 1.07 | 1.16 | 1.12 | 1.1 | 1.25 | 0.907 | 0.824 | 0.822 | 0.89 | 0.817 | – | – | – | – | – | 0.863 | 0.871 | 0.959 | 1.08 | 0.78
9 | NCI-H1944 | 0.949 | 0.935 | 0.862 | 0.873 | 0.796 | 1.23 | 1.03 | 1.11 | 1.14 | 0.949 | 0.957 | 0.936 | 0.855 | 0.928 | 0.822 | – | – | – | – | –
10 | NCI-H2342 | – | – | – | – | – | – | – | – | – | – | 1.21 | 0.977 | 1.03 | 0.982 | 1.08 | – | – | – | – | –
11 | NCI-H358 | 0.536 | 0.474 | 0.413 | 0.436 | 0.321 | 0.748 | 0.716 | 0.511 | 0.506 | 0.485 | 0.774 | 0.589 | 0.694 | 0.73 | 0.442 | – | – | – | – | –
12 | LCLC-103H | – | – | – | – | – | 1.06 | 1.01 | 1.11 | 1.09 | 1.01 | 0.79 | 0.784 | 0.806 | 0.71 | 0.765 | 1.13 | 0.819 | 1.2 | 0.915 | 0.856
13 | NCI-H1792 | 1.01 | 0.967 | 0.867 | 0.825 | 0.798 | 1.03 | 1.05 | 1.04 | 0.879 | 0.87 | – | – | – | – | – | 0.955 | 0.983 | 1.02 | 1.03 | 0.797
14 | NCI-H1793 | 0.737 | 0.873 | 0.74 | 0.608 | 0.643 | – | – | – | – | – | 0.659 | 0.74 | 0.734 | 0.569 | 0.547 | – | – | – | – | –
15 | SW 900 | – | – | – | – | – | – | – | – | – | – | 1.02 | 0.784 | 1.07 | 0.924 | 0.787 | – | – | – | – | –
16 | SK-MES-1 | 0.49 | 0.438 | 0.455 | 0.509 | 0.466 | 0.986 | 0.97 | 0.961 | 0.965 | 0.916 | 0.971 | 0.917 | 0.889 | 0.992 | 0.7 | – | – | – | – | –
17 | LK-2 | 1.1 | 0.895 | 1.12 | 0.996 | 0.977 | 0.233 | 0.271 | 0.232 | 0.244 | 0.235 | 1.26 | 1.01 | 1.11 | 1.03 | 1.46 | – | – | – | – | –
18 | NCI-H1395 | 1.02 | 1.1 | 1.08 | 0.985 | 0.914 | – | – | – | – | – | 1.06 | 0.941 | 0.96 | 0.945 | 0.966 | – | – | – | – | –
19 | NCI-H441 | – | – | – | – | – | 0.94 | 0.811 | 0.505 | 0.647 | 0.78 | 0.488 | 0.797 | 1.03 | 0.994 | 0.752 | 0.599 | 0.472 | 0.693 | 0.57 | 0.449
